In paper PMC3706879, “The neurotrophic compound J147 reverses cognitive impairment in aged Alzheimer's disease mice” (Alzheimer's Research & Therapy, 2013):

Key:
dopamine transporter = dopamine transporter (Homo sapiens, UniProt Q01959); assay: dopamine transporter assay (MDS Pharma Services); format: binding
Procedure: All screening was done at 10 μM J147 by various contract research organizations (CROs), including MDS Pharma Services (King of Prussia, PA, USA), Ricerca, now Panlabs (Concord, OH, USA), Ambit (La Jolla, CA, USA), Caliper (Hopkinton, MA, USA) and NovaScreen Biosciences (Hanover, MD, USA) by standard protocols described in their catalogs.

Rats = assay: acute toxicity in rats (Absorption Systems); format: in vivo; details: 2 g/kg
Procedure: The pharmacokinetics of J147 in the mouse brain and plasma were evaluated using standard procedures. Blood and brain distribution of J147 following per oral (PO) administration was plotted for mice as a function of time (Figure 5). […] Additional de-risking and target identification screens were carried out at 10 μM J147 by various CROs (Table 2). […] All original data are available upon request.

huAPP/PS1 mice [1] = assay: two-day water maze in aged huAPP/PS1 mice; format: in vivo; details: 200 ppm in food for three months, vs AD control
Procedure: (§1) The APPswe/PS1ΔE9 transgenic mice have been previously characterized. The line 85 mice carry two transgenes, the mouse/human chimeric APP/Swe, linked to Swedish FAD and human PS1ΔE9. At 20 months of age both male and female transgenic mice were fed a high fat diet (Harlan Tekland, Madison, WI, USA) with and without J147 (200 ppm, 10 mg/kg/day). Treatment continued for three months and was followed by behavior testing and sacrifice of mice for tissue harvesting. […] (Data not shown).
Spatial memory was determined using the two-day water maze in 23-month-old huAPPswe/PS1 transgenic mice fed J147 at 200 ppm in food for the previous three months. The protocol was adapted from a publication by Gulinello and colleagues. Water temperature remained at 27°C throughout the experiment. The goal platform was positioned 45 cm from the outside wall in the north-west quadrant of the maze for all groups and all trials. Day 1 of the two-day water maze procedure involved training the mice to find the platform using cues located around the pool within a 180 s time frame. […] The time it took each mouse to find the hidden platform was measured as escape latency. […] All trials were recorded using the EthoVision Software and statistics were computed using GraphPad Instat software (GraphPad Software, San Diego, CA, USA).

huAPP/PS1 mice [2] = assay: fear conditioning assay in aged huAPP/PS1 mice; format: in vivo; details: 200 ppm in food for three months
Procedure: as §1
Fear conditioning to either a cue or a context represents a form of associative learning. The read-out that is measured in contextual and cued fear conditioning is a freezing response that occurs following the pairing of an unconditioned stimulus (US), such as a foot shock, with a conditioned stimulus (CS), such as a particular context or cue (tone). The mouse will freeze if it remembers and associates that environment with the aversive stimulus. […] On Day 2, the time spent freezing is measured over the entire time in the chamber. […] The percentage of time spent freezing by each mouse is averaged per group and then groups can be compared and P-values calculated to determine statistical significance. On Day 3, the percentage of time spent freezing during the two tones is averaged per group, and then groups can be compared and P-values calculated to determine statistical significance. […]

mice = details: mouse, in vivo

Chain of dopamine transporter (Q01959 whole entry): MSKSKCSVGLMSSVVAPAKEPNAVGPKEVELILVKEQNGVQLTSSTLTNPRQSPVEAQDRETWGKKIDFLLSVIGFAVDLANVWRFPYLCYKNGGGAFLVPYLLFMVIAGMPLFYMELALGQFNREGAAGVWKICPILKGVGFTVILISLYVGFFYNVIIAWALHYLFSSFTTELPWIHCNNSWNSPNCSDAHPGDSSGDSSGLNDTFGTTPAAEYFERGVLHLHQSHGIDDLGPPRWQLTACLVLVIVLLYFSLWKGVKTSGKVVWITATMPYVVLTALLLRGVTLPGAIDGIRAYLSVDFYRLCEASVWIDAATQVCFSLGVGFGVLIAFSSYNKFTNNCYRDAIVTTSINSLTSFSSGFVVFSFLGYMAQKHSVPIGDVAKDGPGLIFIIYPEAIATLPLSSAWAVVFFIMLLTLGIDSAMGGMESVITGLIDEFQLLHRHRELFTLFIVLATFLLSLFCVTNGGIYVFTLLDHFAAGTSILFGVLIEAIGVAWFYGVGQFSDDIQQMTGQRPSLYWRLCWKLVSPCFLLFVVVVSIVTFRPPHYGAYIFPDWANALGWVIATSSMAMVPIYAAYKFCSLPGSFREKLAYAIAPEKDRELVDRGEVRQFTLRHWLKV

COc1cccc(/C=N/N(C(=O)C(F)(F)F)c2ccc(C)cc2C)c1 [J147, (E)-N-(2,4-dimethylphenyl)-2,2,2-trifluoro-N'-(3methoxybenzyli-dene) acetohydrazide]
inhibition, dopamine transporter (dopamine transporter; 10 μM J147): greater than 60% | EC50 (dopamine transporter; dose response, re-assay after screening): 649 nM | acute toxicity (Rats): negative results | spatial navigational memory (escape latency, hidden platform Day 2) (huAPP/PS1 mice [1]): significantly improved the spatial navigational memory | contextual fear conditioning, freezing Day 2 (huAPP/PS1 mice [2]): rescued | cued fear conditioning, freezing Day 3 (huAPP/PS1 mice [2]): no significant difference between the groups | addiction (mice): no addiction
